Measured values taken from PMC12621189, “Optimization of Selective and CNS Penetrant Alkyne-Based TREK Inhibitors: The Discovery and Characterization of ONO-9517601 (VU6022856) and ONO-7927846 (VU6024391)” (Journal of Medicinal Chemistry, 2025).
pIC50: −log10 of the molar value. Values joined by “and” are separate entries in the source; they are usually repeats but may differ in a detail not shown here. Equal entries are not always repeated.

How the values were obtained:
human TREK-1 (hTREK-1) = target: T1, human TREK-1 (hTREK-1) (Homo sapiens, UniProt O95069); assay: TREK-1 thallium flux assay (CHO-K1 cells stably expressing hTREK-1); type: cell-based; conditions: human TREK-1, thallium flux; read-out: h TREK-1 Tl+ IC50
T1 construct: expressed in transfected cells
T1 sequence (O95069 1-426): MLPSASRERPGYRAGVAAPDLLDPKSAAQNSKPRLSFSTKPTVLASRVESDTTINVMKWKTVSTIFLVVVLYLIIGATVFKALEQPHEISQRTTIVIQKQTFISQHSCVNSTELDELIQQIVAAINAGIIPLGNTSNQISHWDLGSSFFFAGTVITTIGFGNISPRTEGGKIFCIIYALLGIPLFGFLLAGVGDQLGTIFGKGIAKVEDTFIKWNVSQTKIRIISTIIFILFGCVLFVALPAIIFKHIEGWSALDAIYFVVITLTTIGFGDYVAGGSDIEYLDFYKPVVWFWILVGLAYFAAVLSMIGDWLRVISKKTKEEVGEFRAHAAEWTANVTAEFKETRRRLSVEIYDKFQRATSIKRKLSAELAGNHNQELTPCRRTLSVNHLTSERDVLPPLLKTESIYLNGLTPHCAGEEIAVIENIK
How it was run: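 Cells loaded with FluxOR dye were preincubated 10 min with test compound in 0.3% DMSO, then given thallium stimulus buffer. ΔRatio was fluorescence 25 s after thallium over pre-thallium baseline; % inhibition was normalised between vehicle and 10 μM reference blocker, and IC50 was fitted from concentration–response.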

hTREK-1 = target: T2, hTREK-1 (Homo sapiens, UniProt O95069); assay: hTREK-1 manual patch clamp assay; type: cell-based; conditions: human TREK-1, manual patch clamp; read-out: TREK-1 IC50 (human, MPC)
T2 construct: expressed in transfected cells
T2 sequence (O95069 1-426): T1 sequence (O95069 1-426)
Procedure: hTREK-1 and mTREK-1 patch clamp assay
CHO-K1 cells stably expressing hTREK-1 or CHO-K1 cells transiently expressing mouse TREK-1 (mTREK-1) were plated on glass coverslips, and voltage clamped in the whole-cell configuration of the patch clamp technique. Cells were voltage clamped at a holding potential of - 80 mV and the stepped to 0 mV for 500 msec. The voltage was subsequently ramped from -120mV to +80 mV over a 500 msec duration. This step-ramp protocol was repeated every 10 sec. The bathing solution contained the following: 135 mM NaCl, 5 mM KCl, 2 mM CaCl2, 1 mM MgCl2, 5 mM D-Glucose, 10 mM HEPES, 10 mM sucrose (adjusted to pH 7.4 with NaOH, 300 mosmol/kg H2O). The pipette solution contained the following: 135 mM KCl, 2 mM MgCl2, 1 mM EGTA, 10 mM HEPES, 2 mM Na2ATP (adjusted to pH 7.35 with KOH, 285 mosmol/kg H2O). Test […]
compounds were dissolved into the bathing solution. The effects of test compound on the currents were calculated at 0 mV using the following equations:
% inhibition = (1-post current/pre current) x 100
% inhibition vs compound concentrations were plotted in GraphPad Prism and calculated IC50. […]

[1] = Liver microsome intrinsic clearance, human; type: in vitro ADME; conditions: for CLint scaled at 1 µM: pH 7.4, human liver microsomes, predicted intrinsic clearance, read-out: LMS CLINT human; for Predicted CLhep human: from microsomal CLint
How it was run: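 Incubation in 100 mM potassium phosphate pH 7.4 with 3 mM MgCl2 at 37 °C, started with 1 mM NADPH after 5 min preincubation; sampled 0–45 min, quenched in acetonitrile, LC/MS/MS. Half-life from ln % remaining vs time; CLint scaled with 20 (human) or 45 (rat) factors, CLhep using Qh 21 (human) or 70 (rat) mL/min/kg.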

SMILES | pIC50 (human TREK-1 (hTREK-1)) | pIC50 (hTREK-1) | CLint scaled at 1 µM [1] [mL/min/kg] | Predicted CLhep human [1] [mL/min/kg]
Cc1cc(C#Cc2ccccc2)cnc1NC(=O)c1cc(OC[C@@H]2COCCO2)ccc1Cl [Compound 7, (S)-5-((1,4-Dioxan-2-yl)methoxy)-2-chloro-N-(3-methyl-5-(phenylethynyl)pyridin-2-yl)benzamide] | 6.68 | 7.10 | 57 | –
CC(=O)N1CCC(n2ncc(Cl)c2C(=O)Nc2ncc(C#Cc3ccccc3)cc2C)CC1 [Compound 10, 1-(1-Acetylpiperidin-4-yl)-4-chloro-N-(3-methyl-5-(phenylethynyl)pyridin-2-yl)-1H-pyrazole-5-carboxamide] | 7.17 and 7.15 | 7.20 | 6 | 4.9
CC(=O)N1CC[C@@H](n2ncc(Cl)c2C(=O)Nc2ncc(C#Cc3ccc(F)cc3)cc2C)[C@H](F)C1 [Compound 11, 1-((3R,4R)-1-Acetyl-3-fluoropiperidin-4-yl)-4-chloro-N-(5-((4-fluorophenyl)ethynyl)-3-methylpyridin-2-yl)-1H-pyrazole-5-carboxamide] | 6.96 | 7.19 | 10 | 7.0
Cc1cc(C#Cc2ccccc2)cnc1NC(=O)c1c(Cl)cnn1[C@H]1CCOC1 [Compound 15a, (S)-4-Chloro-N-(3-methyl-5-(phenylethynyl)pyridin-2-yl)-1-(tetrahydrofuran-3-yl)-1H-pyrazole-5-carboxamide] | 6.44 | – | 4 | –
